Laboratory results taken from PubChem BioAssay (NCI).
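Cells were grown in 96-well plates and exposed to each compound for 48 hours at five concentrations; endpoints were interpolated linearly between bracketing concentrations, or set to the highest concentration if not reached. Here, GI50 denotes the concentration required for 50% inhibition of growth. TGI marks complete inhibition of growth.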

Key:
Assay in all cases: NCI-60 cell line screen, 48 h
A549 NSCLC = system: A549 NSCLC
HS 578T breast = system: HS 578T breast
IGROV1 ovarian = system: IGROV1 ovarian
NCI-H23 lung = system: NCI-H23 lung
OVCAR-4 ovarian = system: OVCAR-4 ovarian
OVCAR-8 ovarian = system: OVCAR-8 ovarian
SK-MEL-28 melanoma = system: SK-MEL-28 melanoma
SN12C renal = system: SN12C renal
TK-10 renal = system: TK-10 renal
UACC-257 melanoma = system: UACC-257 melanoma

| Compound | TGI (A549 NSCLC) [µM] | TGI (HS 578T breast) [µM] | TGI (IGROV1 ovarian) [µM] | TGI (NCI-H23 lung) [µM] | TGI (OVCAR-4 ovarian) [µM] | TGI (OVCAR-8 ovarian) [µM] | TGI (SK-MEL-28 melanoma) [µM] | TGI (SN12C renal) [µM] | TGI (TK-10 renal) [µM] | TGI (UACC-257 melanoma) [µM] | GI50 (A549 NSCLC) [µM] | GI50 (HS 578T breast) [nM] | GI50 (IGROV1 ovarian) [µM] | GI50 (NCI-H23 lung) [µM] | GI50 (OVCAR-4 ovarian) [µM] | GI50 (OVCAR-8 ovarian) [µM] | GI50 (SK-MEL-28 melanoma) [µM] | GI50 (SN12C renal) [µM] | GI50 (TK-10 renal) [µM] | GI50 (UACC-257 melanoma) [µM] |
| --- | --- | --- | --- | --- | --- | --- | --- | --- | --- | --- | --- | --- | --- | --- | --- | --- | --- | --- | --- | --- |
| Nc1nc(Cl)nc2c1ncn2C1CCC(COP(=O)(O)OP(=O)(O)OP(=O)(O)O)O1 (stereo unspecified) | 78.8 | > 100 | > 100 | 41.6 | 77.8 | 51.9 | 54.1 | > 100 | > 100 | > 100 |  |  |  |  |  |  |  |  |  |  |
| CCc1cccc(CC)c1NC(=O)c1ccn2c1CCc1cnc(Nc3ccc(N4CCN(C)CC4)cc3OC)nc1-2 | 42 | 11 | 19.4 | 27 | 18.1 | 32.8 | 3.55 | 13.9 | 16.2 | 4.8 | 2.17 | 2240 | 2.52 | 4.48 | 3.77 | 2.19 | 1.76 | 2.13 | 2.93 | 2.05 |
| CCNC(=O)c1ccc2c(c1)nc(-c1ccc(Cl)cc1)n2-c1cc(C(C)(C)C)[nH]n1 | 31.9 | 7.6 | 64.8 | 20.3 | > 100 | 13.4 | 11.7 | 70 | 71.3 | 30.5 | 3.19 | 2580 | 5.22 | 2.78 | 5.43 | 3.06 | 2.78 | 3.79 | 6.14 | 3.59 |
| Nc1ncnc2c1c(C(=O)NO)cn2C1OC(CO)C(O)C1O (stereo unspecified) | > 40.4 | 3.54 |  | 2.89 | 5.61 | > 100 | 3.63 | 1.24 | > 31.4 | 3.52 | 0.462 | 331 | 0.279 | 0.329 | 0.213 | 0.353 | 0.479 | 0.244 | 0.572 | 0.522 |
| COc1cc(/C=N/Nc2ncnc3c2cnn3Cc2ccccc2)ccc1O | > 23.9 | > 21.2 | > 25 | > 25 | 15.3 | > 19.8 | > 25 | > 25 | 19.1 | > 25 | 8.69 | 4160 | 14.8 | 11.9 | 5.05 | 5.85 | > 19.6 | > 15.8 | 6.39 | > 16.7 |
| CNC(=O)c1c(NC(=O)c2ccc(C(C)C)cc2)sc2c1CCC(=O)C2 | 5.45 | 2.34 | 2.4 | 3.92 | 1.16 | 2.38 | 3.39 | 2.38 | 13 | 6.35 | 0.401 | 357 | 0.542 | 0.418 | 0.32 | 0.338 | 0.748 | 0.603 | 0.504 | 2.05 |
| COc1ccc(NC(=O)CC(=O)n2nc(-c3ccccc3)c(N=Nc3ccccc3C)c2-c2ccccc2)cc1 | 41.7 | 35.6 | 46.2 | 51.1 | 59.5 | 66 | > 63.2 | > 88.5 | 47.2 | > 100 |  |  |  |  |  |  |  |  |  |  |
| O=C(Nc1cccc(-n2cc(-c3ccncc3)c(-c3ccc(O)c(Cl)c3)n2)c1)c1ccc(N2CCOCC2)c(C(F)(F)F)c1 | > 50 | > 50 | > 50 | > 50 | > 50 | > 50 | > 50 | > 50 | > 50 | > 50 | 2 | 548 | > 50 | 3.95 | > 50 | 2.24 | 3.75 | > 50 | > 50 | > 50 |
| CCCC(=O)Nc1ncnc2c1ncn2C1OC2COP(=O)(O)OC2C1OC(=O)CCC (stereo unspecified) | > 1000 | > 1000 |  | > 1000 | > 1000 | > 1000 | > 1000 | > 1000 | > 1000 | > 1000 | > 1000 |  | > 1000 | > 1000 | > 1000 | > 1000 | > 1000 | > 1000 |  | > 1000 |
| Cc1ccc(C(CC(=O)c2ccccc2)C(C(=O)c2ccccc2)C(c2ccc(C)cc2)C2C(=O)NC(=S)NC2=O)cc1 (stereo unspecified) | > 50 | > 50 | > 50 | > 50 | > 50 | > 50 | > 50 | > 50 | > 50 | > 50 | 12.8 | 21700 | 19.2 | 15.1 | > 50 | 16.9 | > 50 | 25.1 | 20.6 | 13.4 |
